Experimental data from patent US20240150377A1, “MODULATORS OF CYSTIC FIBROSIS TRANSMEMBRANE CONDUCTANCE REGULATOR” (VERTEX PHARMACEUTICALS INCORPORATED, priority 2020, published 2024).
Like-named read-outs stand apart in the source and are kept apart here.

Biological target: CFTR (Homo sapiens, UniProt P13569)
Assay: Membrane potential dye, Enteroid Assay B
Assay type: cell-based
Details: for EC50: read-out: Ent. B EC50; for Ent. B Max Activity: chloride transport as % of triple combination control (Enteroid Assay B)
Method in brief: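 Fluorescence read over 15 min after chloride-free stimulation (10 μM forskolin, 100 μM IBMX, 300 nM Compound III) gave chloride transport, reported as % activity versus a triple-corrector/potentiator control. Beforehand, human enteroid cells had 18-24 h compound exposure at 37° C and 25 min methyl oxonol dye loading at room temperature.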

[1] = Table 8, human enteroid cells, 18-24 hours, acute 10 μM forskolin and 300 nM ivacaftor

Sequence of CFTR (P13569 with tags, fused parts or gaps DEL508-508): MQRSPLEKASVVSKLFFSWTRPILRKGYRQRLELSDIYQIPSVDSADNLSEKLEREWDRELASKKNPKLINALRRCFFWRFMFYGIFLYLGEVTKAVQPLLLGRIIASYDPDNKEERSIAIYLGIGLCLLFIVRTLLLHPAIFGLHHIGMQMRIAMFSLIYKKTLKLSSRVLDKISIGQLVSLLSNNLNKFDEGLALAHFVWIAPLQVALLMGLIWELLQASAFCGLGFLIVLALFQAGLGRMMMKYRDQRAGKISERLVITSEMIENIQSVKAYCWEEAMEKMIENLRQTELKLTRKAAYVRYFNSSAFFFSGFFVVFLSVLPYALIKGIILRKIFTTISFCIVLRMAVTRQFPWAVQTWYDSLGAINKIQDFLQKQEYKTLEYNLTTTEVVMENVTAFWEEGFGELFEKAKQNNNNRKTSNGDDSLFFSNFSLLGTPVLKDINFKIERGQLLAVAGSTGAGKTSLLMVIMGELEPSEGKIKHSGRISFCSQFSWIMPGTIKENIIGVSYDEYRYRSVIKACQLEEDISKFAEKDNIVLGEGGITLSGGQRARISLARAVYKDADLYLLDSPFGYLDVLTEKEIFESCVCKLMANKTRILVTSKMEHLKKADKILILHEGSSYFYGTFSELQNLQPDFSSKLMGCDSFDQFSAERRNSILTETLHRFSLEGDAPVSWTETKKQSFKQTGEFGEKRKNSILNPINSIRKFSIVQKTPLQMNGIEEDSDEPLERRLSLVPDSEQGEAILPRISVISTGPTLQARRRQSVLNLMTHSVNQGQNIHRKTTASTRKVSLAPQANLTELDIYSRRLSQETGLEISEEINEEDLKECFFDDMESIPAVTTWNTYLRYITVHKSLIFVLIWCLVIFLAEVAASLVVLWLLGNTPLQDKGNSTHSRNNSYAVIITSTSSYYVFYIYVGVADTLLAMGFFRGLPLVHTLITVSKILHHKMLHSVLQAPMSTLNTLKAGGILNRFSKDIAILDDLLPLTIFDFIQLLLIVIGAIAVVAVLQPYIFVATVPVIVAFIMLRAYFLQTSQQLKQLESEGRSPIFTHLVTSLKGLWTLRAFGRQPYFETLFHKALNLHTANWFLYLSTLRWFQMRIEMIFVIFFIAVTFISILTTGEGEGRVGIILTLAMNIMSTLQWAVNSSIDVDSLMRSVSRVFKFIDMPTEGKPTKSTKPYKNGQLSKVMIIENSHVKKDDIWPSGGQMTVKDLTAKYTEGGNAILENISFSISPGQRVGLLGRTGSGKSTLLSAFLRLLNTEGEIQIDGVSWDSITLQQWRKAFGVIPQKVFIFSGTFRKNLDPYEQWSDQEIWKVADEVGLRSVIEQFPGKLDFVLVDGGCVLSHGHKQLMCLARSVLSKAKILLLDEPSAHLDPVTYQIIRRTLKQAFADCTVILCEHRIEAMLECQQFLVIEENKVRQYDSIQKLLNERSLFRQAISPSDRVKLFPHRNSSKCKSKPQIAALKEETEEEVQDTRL

Structure (SMILES)	Ent. B Max Activity (%) (Table 9)	EC50 (Table 9)	Ent. B Max Activity (Table 8)	EC50 [1]
Cc1cccc(C)c1-c1cc2nc(n1)NS(=O)(=O)c1cccc(c1)C(=O)N(Cc1cnc(C(C)(C)C)nc1)[C@H](CC(C)(C)C)CO2 [Compound 788]	+++ (+++ is >600%)	< 1000 nM		
Cc1cccc(C)c1-c1cc2nc(n1)NS(=O)(=O)c1cccc(c1)C(=O)N(Cc1ccc(C#CC(C)(C)C#N)cc1)[C@H](CC(C)(C)C)CO2 [Compound 790]	+++ (+++ is >600%)	< 1000 nM		
Cc1cccc(C)c1-c1cc2nc(n1)NS(=O)(=O)c1cccc(c1)C(=O)N(Cc1ccn3nccc3c1)[C@H](CC(C)(C)C)CO2 [Compound 791]	+++ (+++ is >600%)	< 1000 nM		
CCCc1ccc(CN2C(=O)c3cccc(c3)S(=O)(=O)Nc3nc(cc(-c4c(C)cccc4C)n3)OC[C@H]2CC(C)(C)C)cc1 [Compound 793]	+++ (+++ is >600%)			
Cc1cccc(C)c1-c1cc2nc(n1)NS(=O)(=O)c1cccc(c1)C(=O)N(CC13CCC(O)(CC1)CC3)[C@H](CC(C)(C)C)CO2 [Compound 800]	+++ (+++ is >600%)	< 1000 nM		
Cc1cccc(C)c1-c1cc2nc(n1)NS(=O)(=O)c1cccc(c1)C(=O)N(Cc1ccc(S(F)(F)(F)(F)F)cc1)[C@H](CC(C)(C)C)CO2 [Compound 801]	+++ (+++ is >600%)	< 1000 nM		
Cc1cccc(C)c1-c1cc2nc(n1)NS(=O)(=O)c1cccc(c1)C(=O)N(Cc1nc3ccccc3o1)[C@H](CC(C)(C)C)CO2 [Compound 803]	+++ (+++ is >600%)	< 1000 nM		
Cc1cccc(C)c1-c1cc2nc(n1)NS(=O)(=O)c1cccc(c1)C(=O)N(Cc1ncc(Cl)cn1)[C@H](CC(C)(C)C)CO2 [Compound 805]	+++ (+++ is >600%)	< 1000 nM		
Cc1cccc(C)c1-c1cc2nc(n1)NS(=O)(=O)c1cccc(c1)C(=O)N(Cc1ccc(C(F)(F)F)cn1)[C@H](CC(C)(C)C)CO2 [Compound 806]	+++ (+++ is >600%)	< 1000 nM		
Cc1cccc(C)c1-c1cc2nc(n1)NS(=O)(=O)c1cccc(c1)C(=O)N(Cc1ccc(CC(=O)N(C)C)cc1)[C@H](CC(C)(C)C)CO2 [Compound 845]	+++ (+++ is >600%)	< 1000 nM		
CNC(=O)Cc1ccc(CN2C(=O)c3cccc(c3)S(=O)(=O)Nc3nc(cc(-c4c(C)cccc4C)n3)OC[C@H]2CC(C)(C)C)cc1 [Compound 846]	+++ (+++ is >600%)	< 1000 nM		
Cc1cccc(C)c1-c1cc2nc(n1)NS(=O)(=O)c1cccc(c1)C(=O)N(Cc1ccc(CC(N)=O)cc1)[C@H](CC(C)(C)C)CO2 [Compound 847]	+++ (+++ is >600%)	< 1000 nM		
Cc1cccc(C)c1-c1cc2nc(n1)NS(=O)(=O)c1cccc(c1)C(=O)N(Cc1ccc(CC(C)(C)O)cc1)[C@H](CC(C)(C)C)CO2 [Compound 848]			+++ (+++ is >60%)	< 1000 nM
Cc1cccc(C)c1-c1cc2nc(n1)NS(=O)(=O)c1cc(n(C)n1)C(=O)N(Cc1ccc(C(C)(C)O)cc1)[C@H](CC(C)(C)C)CO2 [Compound 923]			+++ (+++ is >60%)	< 1000 nM
Cc1ncc(CN2C(=O)c3cc(nn3C)S(=O)(=O)Nc3nc(cc(-c4c(C)cccc4C)n3)OC[C@H]2CC(C)(C)C)cn1 [Compound 925]			++ (++ is 30-60%)	< 1000 nM
Cc1cccc(C)c1-c1cc2nc(n1)NS(=O)(=O)c1cc(nn1C)C(=O)N(Cc1cccnc1)[C@H](CC(C)(C)C)CO2 [Compound 933]			+ (+ is <30%)	
Cc1cccc(C)c1-c1cc2nc(n1)NS(=O)(=O)c1cc(nn1C)C(=O)N(Cc1ccccn1)[C@H](CC(C)(C)C)CO2 [Compound 934]			++ (++ is 30-60%)	< 1000 nM

The next lines start with the values.

Ent. B Max Activity (%) (Table 9)	EC50 (Table 9)	Ent. B Max Activity (Table 8)	EC50 [1]	Structure (SMILES)
+++ (+++ is >600%)	< 1000 nM			Cc1cccc(C)c1-c1cc2nc(n1)NS(=O)(=O)c1cccc(c1)C(=O)N(Cc1ccc(Oc3ncccn3)cc1)[C@H](CC(C)(C)C)CO2 [Compound 789]
+++ (+++ is >600%)	< 1000 nM			Cc1cccc(C)c1-c1cc2nc(n1)NS(=O)(=O)c1cccc(c1)C(=O)N(Cc1ccc3c(c1)C(=O)NC3)[C@H](CC(C)(C)C)CO2 [Compound 792]
+++ (+++ is >600%)	< 1000 nM			Cc1cccc(C)c1-c1cc2nc(n1)NS(=O)(=O)c1cccc(c1)C(=O)N(C[C@H]1CC[C@@H](C(C)(C)O)CC1)[C@H](CC(C)(C)C)CO2 [Compound 796]
+++ (+++ is >600%)	< 1000 nM			Cc1cccc(C)c1-c1cc2nc(n1)NS(=O)(=O)c1cccc(c1)C(=O)N(CC1CCC(C(C)(C)O)CC1)[C@H](CC(C)(C)C)CO2 (stereo partly shown) [Compound 797]
+++ (+++ is >600%)	< 1000 nM			Cc1cccc(C)c1-c1cc2nc(n1)NS(=O)(=O)c1cccc(c1)C(=O)N(Cc1ccc3c(c1)CC(C)(C)O3)[C@H](CC(C)(C)C)CO2 [Compound 798]
+++ (+++ is >600%)	< 1000 nM			Cc1cccc(C)c1-c1cc2nc(n1)NS(=O)(=O)c1cccc(c1)C(=O)N(Cc1ccc3c(c1)NC(=O)C3)[C@H](CC(C)(C)C)CO2 [Compound 799]
+++ (+++ is >600%)	< 1000 nM			Cc1cccc(C)c1-c1cc2nc(n1)NS(=O)(=O)c1cccc(c1)C(=O)N(Cc1ccc3c(c1)oc(=O)n3C)[C@H](CC(C)(C)C)CO2 [Compound 802]
+++ (+++ is >600%)	< 1000 nM			Cc1cccc(C)c1-c1cc2nc(n1)NS(=O)(=O)c1cccc(c1)C(=O)N(Cc1ncc(F)cn1)[C@H](CC(C)(C)C)CO2 [Compound 804]
+++ (+++ is >600%)	< 1000 nM			Cc1cccc(C)c1-c1cc2nc(n1)NS(=O)(=O)c1cccc(c1)C(=O)N(Cc1ncc(Br)cn1)[C@H](CC(C)(C)C)CO2 [Compound 807]
		+++ (+++ is >60%)	< 1000 nM	Cc1cccc(C)c1-c1cc2nc(n1)NS(=O)(=O)c1cccc(c1)C(=O)N(CC1Cc3ccccc3C1)[C@H](CC(C)(C)C)CO2 [Compound 808]
		+++ (+++ is >60%)	< 1000 nM	Cc1cccc(C)c1-c1cc2nc(n1)NS(=O)(=O)c1cccc(c1)C(=O)N(Cc1cc(C(C)(C)O)n(C)n1)[C@H](CC(C)(C)C)CO2 [Compound 849]
		+++ (+++ is >60%)	< 1000 nM	Cc1cccc(C)c1-c1cc2nc(n1)NS(=O)(=O)c1cc(n(C)n1)C(=O)N(Cc1cnccn1)[C@H](CC(C)(C)C)CO2 [Compound 921]
		++ (++ is 30-60%)	3000 to 30000 nM	CCOC(=O)CCCCN1C(=O)c2cc(nn2C)S(=O)(=O)Nc2nc(cc(-c3c(C)cccc3C)n2)OC[C@H]1CC(C)(C)C [Compound 922]
+++ (+++ is >600%)	< 1000 nM			Cc1cnc(CN2C(=O)c3cc(nn3C)S(=O)(=O)Nc3nc(cc(-c4c(C)cccc4C)n3)OC[C@H]2CC(C)(C)C)nc1 [Compound 924]
		++ (++ is 30-60%)	3000 to 30000 nM	Cc1cccc(C)c1-c1cc2nc(n1)NS(=O)(=O)c1cc(n(C)n1)C(=O)N(Cc1ccccc1)[C@H](CC(C)(C)C)CO2 [Compound 926]
		++ (++ is 30-60%)	< 1000 nM	Cc1cccc(C)c1-c1cc2nc(n1)NS(=O)(=O)c1cc(nn1C)C(=O)N(Cc1ccc(C(C)(C)O)cc1)[C@H](CC(C)(C)C)CO2 [Compound 927]
		++ (++ is 30-60%)	< 1000 nM	Cc1cccc(C)c1-c1cc2nc(n1)NS(=O)(=O)c1cc(nn1C)C(=O)N(Cc1ccccc1)[C@H](CC(C)(C)C)CO2 [Compound 928]
		+++ (+++ is >60%)	< 1000 nM	Cc1cccc(C)c1-c1cc2nc(n1)NS(=O)(=O)c1cc(n(C)n1)C(=O)N(Cc1ncccn1)[C@H](CC(C)(C)C)CO2 [Compound 929]
		+++ (+++ is >60%)	< 1000 nM	Cc1cccc(C)c1-c1cc2nc(n1)NS(=O)(=O)c1cc(n(C)n1)C(=O)N(Cc1ccccn1)[C@H](CC(C)(C)C)CO2 [Compound 930]
		+ (+ is <30%)	1000 to 3000 nM	Cc1cccc(C)c1-c1cc2nc(n1)NS(=O)(=O)c1cc(nn1C)C(=O)N(Cc1cccnn1)[C@H](CC(C)(C)C)CO2 [Compound 931]
		+ (+ is <30%)	< 1000 nM	Cc1cccc(C)c1-c1cc2nc(n1)NS(=O)(=O)c1cc(nn1C)C(=O)N(Cc1ccncn1)[C@H](CC(C)(C)C)CO2 [Compound 932]
		+++ (+++ is >60%)	< 1000 nM	COCCCN1C(=O)c2cccc(c2)S(=O)(=O)Nc2nc(cc(-c3c(C)cccc3C)n2)OC[C@H]1CC(C)C [Compound 980]
